Laboratory results published in patent US6060516A, “N^1 -propargylhydrazines, N^2 -propargylhydrazines and their analogs for the treatment of depression, anxiety and neurodegeneration” (CV Technologies, Inc., priority 1998, dated 2000).

Key:
[1] = system: NA, DA, 5-HT, 5-HIAA and DOPAC concentrations in rat hypothalamus; assay: Rat hypothalamus amine and amine metabolite concentrations; type: in vivo
Method: The effects of various doses of CVT-P040 on the concentrations of hypothalamus amine neurotransmitters and their metabolites were evaluated by examining concentrations of noradrenaline (NA), dopamine (DA), 5-hydroxytryptamine (5-HT), 5-hydroxyindoleacetic acid (5-HIAA) and 3,4-dihydroxyphenylacetic acid (DOPAC) in rat hypothalami 5 hours after the injection of the drug. […] The brains were removed and divided in half. One half of the brain was frozen in isopentane on dry ice and retained for estimates of amino acid neurotransmitter concentrations. The other half had the hypothalamus removed and frozen on dry ice for later estimates of amines and their metabolites according to the method of Sloley, B. D. and Goldberg J. I. (1991), Determination of γ-glutamyl conjugates of monoamines by means of high-performance liquid chromatography with electrochemical detection and application to gastropod tissues, J. Chromatog. 567: 49-56. The rest of the brain was frozen on dry ice for ex vivo examination of MAO activity as described earlier.

[2] = system: rat brain and liver monoamine oxidase-A; assay: Monoamine oxidase-A inhibiting activity ex vivo; type: in vivo
Method: (§1) Radiolabelled 5-hydroxytryptamine was used as a substrate for monoamine oxidase-A. The compounds of interest were either injected intraperitonealy in DMSO or administered by gavage in water for various periods. The animals were killed by decapitation and the brains and livers immediately removed and frozen until assayed for monoamine oxidase-A activity. Tissues were homogenized and appropriately diluted in buffer prior to incubation. Incubations proceeded at 37° C. for 10 minutes. Incubation was terminated by the addition of acid and the radiolabelled product (5-hydroxyindoleacetaldehyde and 5-hydroxyindoleacetic acid) was extracted and quantified by liquid scintillation counting procedures. Incubations were done in triplicate and incubations containing phenelzine were included for comparison. The percent inhibition of monoamine oxidase-A activity compared to controls containing no drug was calculated.
(§2) Values are the mean ± the standard error based on (n) determinations.
(§3) Oral doses were administered as 75 μmol/kg on day 1, 75 μmol/kg on
(§4) day 2 and the animals were killed 5 hours later.

[3] = system: rat brain and liver monoamine oxidase-B; assay: Monoamine oxidase-B inhibiting activity ex vivo; type: in vivo
Method: as §1, with “β-phenylethylamine” for “5-hydroxytryptamine”, “employed” for “used”, “oxidase-B.” for “oxidase-A.”, “intraperitoneally” for “intraperitonealy”, “oxidase-B” for “oxidase-A”, “(phenylacetic” for “(5-hydroxyindoleacetaldehyde and 5-hydroxyindoleacetic”
as §2, §3, §4

[4] = system: valine, alanine and gamma-aminobutyric acid (GABA) concentrations in rat brain; assay: Brain valine, alanine and gamma-aminobutyric acid (GABA) concentrations; type: in vivo; settings: 150 μmol/kg, 5 hr, ip
Method: Effects of various doses of CVT-P040, CVT-P041 and phenelzine on the concentrations of some brain amino acids were evaluated by examining concentrations of gamma-aminobutyric acid (GABA) 5 hours after the injection of the drug. Briefly, rats were injected with CVT-P040 ([…]), vehicle, or phenelzine (150 μmol/kg) and killed 3 or 5 hours later. The brains were removed and divided in half. One half of the brain was frozen in isopentane on dry ice and retained for estimates of GABA concentrations. GABA and other amino acid concentrations were estimated using the method of Wong, J. T. F., Baker, G. B. and Coutts, R. T. (1990), A rapid, sensitive assay for γ-aminobutyric acid in brain using electron-capture gas chromatography, Res. Comm. Chem. Path. Pharmacol. 70: 115-122.

[5] = biological target: T1, rat brain monoamine oxidase-A (Rattus norvegicus, UniProt P21396); assay: Monoamine oxidase-A inhibiting activity in vitro (radiochemical, 5-hydroxytryptamine substrate, rat brain homogenate); type: biochemical
T1 construct: appropriately diluted homogenates of rat brain or liver; from tissue; host or cells: rat brain or liver homogenate
T1 sequence (P21396 1-526): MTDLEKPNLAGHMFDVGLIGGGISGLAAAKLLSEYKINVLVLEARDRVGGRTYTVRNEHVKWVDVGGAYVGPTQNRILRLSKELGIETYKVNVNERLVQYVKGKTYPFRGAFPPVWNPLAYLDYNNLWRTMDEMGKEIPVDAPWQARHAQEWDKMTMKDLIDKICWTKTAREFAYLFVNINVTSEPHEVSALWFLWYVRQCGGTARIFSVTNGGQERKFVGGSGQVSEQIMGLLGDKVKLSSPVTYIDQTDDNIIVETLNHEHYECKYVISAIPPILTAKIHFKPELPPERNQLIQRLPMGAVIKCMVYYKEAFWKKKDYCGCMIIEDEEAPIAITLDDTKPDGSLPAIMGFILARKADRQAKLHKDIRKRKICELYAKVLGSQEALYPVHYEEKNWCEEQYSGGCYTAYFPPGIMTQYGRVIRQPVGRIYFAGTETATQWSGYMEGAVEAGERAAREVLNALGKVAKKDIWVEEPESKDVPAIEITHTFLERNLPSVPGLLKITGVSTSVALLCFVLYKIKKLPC
Method: Radiolabelled 5-hydroxytryptamine was used as the substrate for monoamine oxidase-A. Various concentrations of the compounds were incubated in appropriately diluted homogenates of rat brain or liver in a 0.2 M potassium phosphate buffer. Incubations proceeded at 37° C. for 10 minutes. Incubation was terminated by the addition of acid and the radiolabelled product (5-hydroxyindoleacetic acid) was extracted and quantified by liquid scintillation counting procedures. Incubations were done in triplicate and incubations containing phenelzine were included for comparison. The percent inhibition of monoamine oxidase-A activity compared to controls without the compounds of the present invention was calculated.

`NNCCc1ccccc1` [phenelzine, 1-(2-phenyl) ethylhydrazine, reference compound] was tested, and the 5-HIAA ([1]; 5.75 μmol/kg, 5 hr, ip) was 334 ± 23 ng/g, the 5-HT ([1]; 5.75 μmol/kg, 5 hr, ip) was 755 ng/g and the DA ([1]; 5.75 μmol/kg, 5 hr, ip) was 544 ± 66 ng/g. It also gave a DOPAC ([1]; 5.75 μmol/kg, 5 hr, ip) of 89 ± 7 ng/g, an NA ([1]; 5.75 μmol/kg, 5 hr, ip) of 1468 ± 119 ng/g and a 5-HIAA ([1]; 150 μmol/kg, 5 hr, ip) of 131 ng/g. The 5-HT ([1]; 150 μmol/kg, 5 hr, ip) was 1583 ± 95 ng/g, the DA ([1]; 150 μmol/kg, 5 hr, ip) was 385 ng/g and the DOPAC ([1]; 150 μmol/kg, 5 hr, ip) was 51 ± 4 ng/g. The NA ([1]; 150 μmol/kg, 5 hr, ip) was 2113 ± 102 ng/g, the 5-HIAA ([1]; 2 × 75 μmol/kg per os) was 167 ng/g and the DOPAC ([1]; 2 × 75 μmol/kg per os) was 54 ± 4 ng/g. The NA ([1]; 2 × 75 μmol/kg per os) was 2148 ± 171 ng/g, the “% Inhibition Monoamine Oxidase-A” value ([2]; brain, 5.75 μmol/kg, 5 hr, i.p. in 10% DMSO) was 9.1 ± 5.3% and the “% Inhibition Monoamine Oxidase-A” value ([2]; brain, 150 μmol/kg, 5 hr, i.p. in 10% DMSO) was 97.2%. The “% Inhibition Monoamine Oxidase-A” value ([2]; brain, 2 × 75 μmol/kg per os (day 1 and day 2, killed 5 hours later)) was 96.5 ± 1.2%, the “% Inhibition Monoamine Oxidase-A” value ([2]; liver, 5.75 μmol/kg, 5 hr, i.p. in 10% DMSO) was 36.4 ± 5.3% and the “% Inhibition Monoamine Oxidase-A” value ([2]; liver, 2 × 75 μmol/kg per os (day 1 and day 2, killed 5 hours later)) was 97.7 ± 0.3%. The “% Inhibition of Monoamine Oxidase-B” value ([3]; brain, 5.75 μmol/kg, 5 hr, i.p. in 10% DMSO (Table 4, MAO-B by title)) was -2.7 ± 5.6%, the “% Inhibition of Monoamine Oxidase-B” value ([3]; brain, 150 μmol/kg, 5 hr, i.p. in 10% DMSO (Table 4, MAO-B by title)) was 83.3 ± 2.3% and the “% Inhibition of Monoamine Oxidase-B” value ([3]; brain, 2 × 75 μmol/kg per os (Table 4, MAO-B by title)) was 76.4 ± 3.4%. The “% Inhibition of Monoamine Oxidase-B” value ([3]; liver, 5.75 μmol/kg, 5 hr, i.p. in 10% DMSO (Table 4, MAO-B by title)) was 18.1 ± 5.8%, the “% Inhibition of Monoamine Oxidase-B” value ([3]; liver, 2 × 75 μmol/kg per os (Table 4, MAO-B by title)) was 95.6 ± 1.0% and the GABA [4] was 773 ± 37 µg/g. It also gave a Valine [4] of 22.9 ± 0.4 µg/g, an inhibition at 100 µM ([5]; 1 × 10^-4 M) of 100% and an inhibition at 10 µM ([5]; 1 × 10^-5 M) of 100%. The inhibition at 1 µM ([5]; 1 × 10^-6 M) was 98.9%, the inhibition at 0.1 µM ([5]; 1 × 10^-7 M) was 62.9% and the inhibition at 0.01 µM ([5]; 1 × 10^-8 M) was 6.9%.
